Some results are limits rather than exact numbers.

Common to all, as to conditions: Table 35
In one assay the target is RIP3 (Homo sapiens (Human), UniProt Q9Y572). The experiment in a line: KINOMEscan binding assay, RIP3. How it is done:
(§1) Kinase assays. For most assays, kinase-tagged T7 phage strains were grown in parallel in 24-well blocks in an E. coli host derived from the BL21 strain. E. coli were grown to log-phase and infected with T7 phage from a frozen stock (multiplicity of infection=0.4) and incubated with shaking at 32° C. until lysis (90-150 minutes).
(§2) The Hill Slope was set to −1.

For a further assay, the target named is RIP1 (Homo sapiens (Human), UniProt Q13546). Briefly: KINOMEscan binding assay, RIP1.
In another assay the target is MLKL (full length) (Homo sapiens (Human), UniProt Q8NB16). The experiment in a line: KINOMEscan binding assay, MLKL (full length). The procedure: as §1, §2
MLKL (full length), sequence (Q8NB16 whole entry): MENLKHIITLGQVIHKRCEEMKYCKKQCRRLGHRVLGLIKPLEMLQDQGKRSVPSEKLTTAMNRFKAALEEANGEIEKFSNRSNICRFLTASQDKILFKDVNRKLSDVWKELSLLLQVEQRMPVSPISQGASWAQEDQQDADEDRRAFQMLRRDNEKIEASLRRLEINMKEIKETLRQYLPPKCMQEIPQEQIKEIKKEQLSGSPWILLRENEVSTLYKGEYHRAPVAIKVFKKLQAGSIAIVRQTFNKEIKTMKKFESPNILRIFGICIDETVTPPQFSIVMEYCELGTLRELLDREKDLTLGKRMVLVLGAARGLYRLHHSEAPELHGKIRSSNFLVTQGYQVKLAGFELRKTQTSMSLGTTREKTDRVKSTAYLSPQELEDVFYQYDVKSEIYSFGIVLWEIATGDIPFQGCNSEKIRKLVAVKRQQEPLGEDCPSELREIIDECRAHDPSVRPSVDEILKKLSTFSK

RIP1, sequence (Q13546 whole entry): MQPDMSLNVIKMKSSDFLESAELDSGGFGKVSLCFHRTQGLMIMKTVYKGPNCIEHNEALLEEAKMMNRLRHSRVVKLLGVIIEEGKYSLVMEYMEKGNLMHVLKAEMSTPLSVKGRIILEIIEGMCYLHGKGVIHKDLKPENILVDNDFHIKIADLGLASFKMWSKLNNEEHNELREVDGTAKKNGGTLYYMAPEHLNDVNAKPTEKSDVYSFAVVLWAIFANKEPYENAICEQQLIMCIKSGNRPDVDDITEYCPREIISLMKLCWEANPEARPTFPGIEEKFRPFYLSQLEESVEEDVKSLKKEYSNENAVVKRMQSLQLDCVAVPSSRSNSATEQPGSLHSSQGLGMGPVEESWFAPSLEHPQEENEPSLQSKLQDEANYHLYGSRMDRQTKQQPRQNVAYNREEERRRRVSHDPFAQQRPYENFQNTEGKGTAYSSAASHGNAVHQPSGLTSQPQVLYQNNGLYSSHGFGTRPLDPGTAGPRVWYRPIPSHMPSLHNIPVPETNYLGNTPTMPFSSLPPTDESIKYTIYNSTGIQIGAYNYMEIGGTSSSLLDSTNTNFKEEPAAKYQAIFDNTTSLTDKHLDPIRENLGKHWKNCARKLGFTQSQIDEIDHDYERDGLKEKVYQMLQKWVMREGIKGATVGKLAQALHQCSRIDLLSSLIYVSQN
RIP3, sequence (Q9Y572 whole entry): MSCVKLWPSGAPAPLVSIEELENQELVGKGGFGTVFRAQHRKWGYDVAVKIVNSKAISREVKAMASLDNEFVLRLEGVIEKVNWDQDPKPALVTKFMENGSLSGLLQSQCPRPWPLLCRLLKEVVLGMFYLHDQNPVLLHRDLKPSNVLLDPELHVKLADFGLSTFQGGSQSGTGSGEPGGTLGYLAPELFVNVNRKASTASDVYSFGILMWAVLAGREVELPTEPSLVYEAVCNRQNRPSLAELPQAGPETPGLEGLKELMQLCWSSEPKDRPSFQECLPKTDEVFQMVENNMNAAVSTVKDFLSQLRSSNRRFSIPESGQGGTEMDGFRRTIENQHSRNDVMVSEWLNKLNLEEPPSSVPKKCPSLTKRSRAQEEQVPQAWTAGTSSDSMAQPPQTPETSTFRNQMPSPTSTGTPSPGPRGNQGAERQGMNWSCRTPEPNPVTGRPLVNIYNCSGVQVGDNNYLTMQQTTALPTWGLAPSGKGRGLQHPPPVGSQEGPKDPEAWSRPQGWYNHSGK

Turning to `NC(=O)c1c(-c2ccc(NS(=O)(=O)C(F)F)c(OCc3ccc(F)cc3)c2)n[nH]c1Nc1cnc(C(F)(F)F)cn1` [Compound 246, 3-[4-(difluoromethanesulfonamido)-3-[(4-fluorophenyl)methoxy]phenyl]-5-{[5-(trifluoromethyl)pyrazin-2-yl]amino}-1H-pyrazole-4-carboxamide], the Kd at RIP3 was above 30 µM; on RIP1, above 30 µM; at MLKL (full length), below 10 nM.
With `C[C@H](Oc1cc(-c2n[nH]c(Nc3cccc(C(F)(F)F)n3)c2C(N)=O)ccc1NS(=O)(=O)CC(F)(F)F)c1ccc(F)cc1` [Compound 249, 3-{3-[(1S)-1-(4-fluorophenyl)ethoxy]-4-(2,2,2-trifluoroethane-sulfonamido)phenyl}-5-{[6-(trifluoromethyl)pyridin-2-yl]amino}-1H-pyrazole-4-carboxamide], the results for the dissociation constant Kd on RIP3, on RIP1 and on MLKL (full length) were above 30 µM, above 30 µM and below 10 nM, respectively.
For the molecule `C[C@H](Oc1cc(-c2n[nH]c(Nc3cnccn3)c2C(N)=O)ccc1NS(=O)(=O)C(F)F)c1ccc(Cl)cc1` [Compound 252, 3-{3-[(1S)-1-(4-chlorophenyl)ethoxy]-4-(difluoromethanesulfonamido)phenyl}-5-[(pyrazin-2-yl)amino]-1H-pyrazole-4-carboxamide], the Kd at RIP3 was above 30 µM; on RIP1, above 30 µM; at MLKL (full length), below 10 nM.
As to `C[C@H](Oc1cc(-c2c(C(N)=O)c(Nc3cnccn3)nn2C)ccc1NS(=O)(=O)C(F)F)c1ccc(F)cc1` [Compound 253, 5-[4-(difluoromethanesulfonamido)-3-[(1S)-1-(4-fluorophenyl)ethoxy]phenyl]-1-methyl-3-[(pyrazin-2-yl)amino]-1H-pyrazole-4-carboxamide], the dissociation constant Kd was above 30 µM at RIP3, above 30 µM at RIP1 and below 10 nM at MLKL (full length).
Take `C[C@H](Oc1cc(-c2n[nH]c(Nc3cnccn3)c2C(N)=O)ccc1NS(=O)(=O)CC(F)(F)F)c1cccc(Cl)c1` [Compound 256, 3-{3-[(1S)-1-(3-chlorophenyl)ethoxy]-4-(2,2,2-trifluoroethane-sulfonamido)phenyl}-5-[(pyrazin-2-yl)amino]-1H-pyrazole-4-carboxamide]: the Kd is above 30 µM on RIP3, above 30 µM on RIP1 and below 10 nM at MLKL (full length).
On to `NC(=O)c1cccc(Nc2[nH]nc(-c3ccc(NS(=O)(=O)C(F)F)cc3)c2C(N)=O)n1` [Compound 257, 6-({4-carbamoyl-3-[4-(difluoromethanesulfonamido)phenyl]-1H-pyrazol-5-yl}amino)pyridine-2-carboxamide], for which the Kd on RIP3 is above 30 µM; at RIP1, above 30 µM; at MLKL (full length), below 10 nM.
As for `N#Cc1cccc(Nc2[nH]nc(-c3ccc(NS(=O)(=O)C(F)F)cc3)c2C(N)=O)n1` [Compound 258, 5-[(6-cyanopyridin-2-yl)amino]-3-[4-(difluoromethanesulfonamido)phenyl]-1H-pyrazole-4-carboxamide], the Kd on RIP3 is above 30 µM; on RIP1, above 30 µM; at MLKL (full length), below 10 nM.
As to `C[C@H](Oc1cc(-c2n[nH]c(Nc3cnccn3)c2C(N)=O)ccc1NS(=O)(=O)CC(F)(F)F)c1ccc(Cl)cc1` [Compound 259, 3-{3-[(1S)-1-(4-chlorophenyl)ethoxy]-4-(2,2,2-trifluoroethane-sulfonamido)phenyl}-5-[(pyrazin-2-yl)amino]-1H-pyrazole-4-carboxamide], the Kd on RIP3 is above 30 µM; at RIP1 it was above 30 µM; at MLKL (full length), below 10 nM.
With `C[C@H](Oc1cc(-c2n[nH]c(Nc3ccccn3)c2C(N)=O)ccc1NS(=O)(=O)C(F)F)c1ccc(F)cc1` [Compound 260], the Kd was above 30 µM on RIP3, above 30 µM at RIP1 and below 10 nM on MLKL (full length).
Regarding `CCS(=O)(=O)Nc1ccc(-c2n[nH]c(Nc3cnccn3)c2C(N)=O)cc1OCc1ccccn1` [Compound 261, 3-{4-ethanesulfonamido-3-[(pyridin-2-yl)methoxy]phenyl}-5-[(pyrazin-2-yl)amino]-1H-pyrazole-4-carboxamide], the equilibrium dissociation constant (Kd) on RIP3 is above 30 µM; on RIP1 it was above 30 µM; on MLKL (full length), below 10 nM.

By Kd is commonly meant a measure of binding affinity in units of concentration. Low values mean tighter binding, high ones weaker binding.

Source of the values: patent US20250074891A1 (Anaxis Pharma Pty Ltd., priority 2021, published 2025).
